What was measured:
RIPK1 [1] = target: T1, RIPK1 (Homo sapiens, UniProt Q13546); test: Cell-based necroptosis assay for RIPK1 activity (cell viability by CCK-8); conditions: HT-29 cells; Z-VAD-FMK 20 μM, human TNFα 10 ng/ml, SM-164 100 nM; 24 h; read-out: Cell-base RIPK1 activity: Necroptosis
T1 construct: endogenous in cells; host or cells: HT-29 (KCLB 30038)
T1 sequence (Q13546 1-671): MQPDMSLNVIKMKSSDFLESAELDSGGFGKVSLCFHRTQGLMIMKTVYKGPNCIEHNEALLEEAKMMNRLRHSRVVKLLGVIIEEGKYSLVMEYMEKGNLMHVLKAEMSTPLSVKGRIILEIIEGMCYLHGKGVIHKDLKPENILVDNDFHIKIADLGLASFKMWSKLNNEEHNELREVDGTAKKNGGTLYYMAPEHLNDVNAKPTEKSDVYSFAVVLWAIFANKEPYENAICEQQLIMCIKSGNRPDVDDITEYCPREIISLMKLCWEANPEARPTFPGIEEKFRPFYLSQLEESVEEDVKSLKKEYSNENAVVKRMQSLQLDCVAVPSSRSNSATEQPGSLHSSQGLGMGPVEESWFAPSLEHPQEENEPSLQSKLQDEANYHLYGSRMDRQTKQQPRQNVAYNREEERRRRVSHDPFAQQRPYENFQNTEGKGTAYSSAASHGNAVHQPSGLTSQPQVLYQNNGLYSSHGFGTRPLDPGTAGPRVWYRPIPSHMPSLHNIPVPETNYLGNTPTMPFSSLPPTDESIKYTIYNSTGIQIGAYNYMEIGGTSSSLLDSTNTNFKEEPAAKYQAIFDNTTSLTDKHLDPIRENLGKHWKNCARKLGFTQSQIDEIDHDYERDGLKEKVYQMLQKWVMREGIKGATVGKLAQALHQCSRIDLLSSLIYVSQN
Procedure, shortened: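 HT-29 cells pretreated 30 min with 20 μM Z-VAD-FMK, then necroptosis induced with human TNFα 10 ng/ml plus SM-164 100 nM alongside RIPK1 inhibitor (0.0001–10 uM) for 24 h. Viability read by CCK-8.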

RIPK1 [2] = target: T1, RIPK1; test: Immunoblotting of TNFα induced phospho-RIPK1 (ser 166) levels; assay type: cell-based; conditions: HMC3 cells; Z-VAD-FMK, human TNFα 20 ng/ml, SM-164 100 nM; 7 h, serum free media; read-out: Cell-base RIPK1 activity: phspho-RIPK1 (Ser166)
Procedure, shortened: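 HMC3 human microglial cells were pretreated 30 min with Z-VAD-FMK […]. They were then given TNFα 20 ng/ml, SM-164 100 nM and inhibitor (0.1, 1, 10 nM) for 7 h in serum-free medium. BCA-normalised lysates were immunoblotted for phospho-RIPK1 Ser166.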

IC50 (RIPK1 [2]) [nM] | Compound | IC50 (RIPK1 [1]) [nM]
< 10 | CN1C(=O)[C@@H](NC(=O)n2cc(Cc3cccc(F)c3)cn2)COc2ccc(OCC(O)c3ccncc3)cc21 (stereo partly drawn) [Example 71, 4-(3-fluorobenzyl)-N-((3S)-7-(2-hydroxy-2-(pyridin-4-yl)ethoxy)-5-methyl-4-oxo-2,3,4,5-tetrahydrobenzo[b][1,4]oxazepin-3-yl)-1H-pyrazole-1-carboxamide] | < 10
10 to 50 | CN1C(=O)[C@@H](NC(=O)n2cc(Cc3cccc(F)c3)cn2)COc2ccc(C(=O)N3CCCCC3)cc21 [Example 1, (S)-4-(3-fluorobenzyl)-N-(5-methyl-4-oxo-7-(piperidine-1-carbonyl)-2,3,4,5-tetrahydrobenzo[b][1,4]oxazepin-3-yl)-1H-pyrazole-1-carboxamide] | 10 to 50
< 10 | CN1C(=O)[C@@H](NC(=O)n2cc(Cc3cccc(F)c3)cn2)COc2ccc(OCc3ccc(F)cc3)cc21 [Example 57, (S)-4-(3-fluorobenzyl)-N-(7-((4-fluorobenzyl)oxy)-5-methyl-4-oxo-2,3,4,5-tetrahydrobenzo[b][1,4]oxazepin-3-yl)-1H-pyrazole-1-carboxamide] | < 10
< 10 | CN1C(=O)[C@@H](NC(=O)n2cc(Cc3cccc(F)c3)cn2)COc2ccc(O[C@H]3CC[C@H](O)CC3)cc21 [Example 35, 4-(3-fluorobenzyl)-N—((S)-7-(((1r,4S)-4-hydroxycyclohexyl)oxy)-5-methyl-4-oxo-2,3,4,5-tetrahydrobenzo[b][1,4]oxazepin-3-yl)-1H-pyrazole-1-carboxamide] | < 10
< 10 | CN1C(=O)[C@@H](NC(=O)n2cc(Cc3cccc(F)c3)cn2)COc2ccc(OCC(=O)N3CCC(C)(O)CC3)cc21 [Example 41, (S)-4-(3-fluorobenzyl)-N-(7-(2-(4-hydroxy-4-methylpiperidin-1-yl)-2-oxoethoxy)-5-methyl-4-oxo-2,3,4,5-tetrahydrobenzo[b][1,4]oxazepin-3-yl)-1H-pyrazole-1-carboxamide] | < 10
< 10 | CN1C(=O)[C@@H](NC(=O)n2cc(Cc3cccc(F)c3)cn2)COc2ccc(C(=O)N3CCC(C)(C)CC3)cc21 [Example 2, (S)—N-(7-(4,4-dimethylpiperidine-1-carbonyl)-5-methyl-4-oxo-2,3,4,5-tetrahydrobenzo[b][1,4]oxazepin-3-yl)-4-(3-fluorobenzyl)-1H-pyrazole-1-carboxamide] | < 10
< 10 | CN1C(=O)[C@@H](NC(=O)n2cc(Cc3cccc(F)c3)cn2)COc2ccc(OCC(=O)N3CCCC3)cc21 [Example 44, (S)-4-(3-fluorobenzyl)-N-(5-methyl-4-oxo-7-(2-oxo-2-(pyrrolidin-1-yl)ethoxy)-2,3,4,5-tetrahydrobenzo[b][1,4]oxazepin-3-yl)-1H-pyrazole-1-carboxamide] | < 10
< 10 | CN1C(=O)[C@@H](NC(=O)n2cc(Cc3cccc(F)c3)cn2)COc2ccc(OCCCc3cccnc3)cc21 [Example 29, (S)-4-(3-fluorobenzyl)-N-(5-methyl-4-oxo-7-(3-(pyridin-3-yl)propoxy)-2,3,4,5-tetrahydrobenzo[b][1,4]oxazepin-3-yl)-1H-pyrazole-1-carboxamide] | < 10
10 to 50 | CN(C(=O)c1ccc2c(c1)N(C)C(=O)[C@@H](NC(=O)n1cc(Cc3cccc(F)c3)cn1)CO2)c1ccncc1 [Example 12, (S)-3-(4-(3-fluorobenzyl)-1H-pyrazole-1-carboxamido)-N,5-dimethyl-4-oxo-N-(pyridin-4-yl)-2,3,4,5-tetrahydrobenzo[b][1,4]oxazepine-7-carboxamide] | 10 to 50

The next lines start with the compound.

Compound | IC50 (RIPK1 [2]) [nM] | IC50 (RIPK1 [1]) [nM]
CN1C(=O)[C@@H](NC(=O)n2cc(Cc3cccc(F)c3)cn2)COc2ccc(OCc3nc(C(C)(C)O)cs3)cc21 [Example 66, (S)-4-(3-fluorobenzyl)-N-(7-((4-(2-hydroxypropan-2-yl)thiazol-2-yl)methoxy)-5-methyl-4-oxo-2,3,4,5-tetrahydrobenzo[b][1,4]oxazepin-3-yl)-1H-pyrazole-1-carboxamide] | < 10 | < 10
CN1C(=O)[C@@H](NC(=O)n2cc(Cc3cccc(F)c3)cn2)COc2ccc(C(=O)N3CC4(COC4)C3)cc21 [Example 14, (S)-4-(3-fluorobenzyl)-N-(5-methyl-4-oxo-7-(2-oxa-6-azaspiro[3.3]heptane-6-carbonyl)-2,3,4,5-tetrahydrobenzo[b][1,4]oxazepin-3-yl)-1H-pyrazole-1-carboxamide] | 10 to 50 | 10 to 50
CN1C(=O)[C@@H](NC(=O)n2cc(Cc3cccc(F)c3)cn2)COc2ccc(OCC3CCOCC3)cc21 [Example 55, (S)-4-(3-fluorobenzyl)-N-(5-methyl-4-oxo-7-((tetrahydro-2H-pyran-4-yl)methoxy)-2,3,4,5-tetrahydrobenzo[b][1,4]oxazepin-3-yl)-1H-pyrazole-1-carboxamide] | < 10 | < 10
CN1C(=O)[C@@H](NC(=O)n2cc(Cc3cccc(F)c3)cn2)COc2ccc(OCC(C)(C)O)cc21 [Example 20, (S)-4-(3-fluorobenzyl)-N-(7-(2-hydroxy-2-methylpropoxy)-5-methyl-4-oxo-2,3,4,5-tetrahydrobenzo[b][1,4]oxazepin-3-yl)-1H-pyrazole-1-carboxamide] | < 10 | < 10
CN1C(=O)[C@@H](NC(=O)n2cc(Cc3cccc(F)c3)cn2)COc2ccc(OCC#CC(C)(C)O)cc21 [Example 22, (S)-4-(3-fluorobenzyl)-N-(7-((4-hydroxy-4-methylpent-2-yn-1-yl)oxy)-5-methyl-4-oxo-2,3,4,5-tetrahydrobenzo[b][1,4]oxazepin-3-yl)-1H-pyrazole-1-carboxamide] | < 10 | < 10
CN1C(=O)[C@@H](NC(=O)n2cc(Cc3cccc(F)c3)cn2)COc2ccc(OC3CCC(C)(C)CC3)cc21 [Example 31, (S)—N-(7-((4,4-dimethylcyclohexyl)oxy)-5-methyl-4-oxo-2,3,4,5-tetrahydrobenzo[b][1,4]oxazepin-3-yl)-4-(3-fluorobenzyl)-1H-pyrazole-1-carboxamide] | < 10 | < 10
CN1C(=O)[C@@H](NC(=O)n2cc(Cc3cccc(F)c3)cn2)COc2ccc(OCC(=O)N3CCC(F)(F)C3)cc21 [Example 45, (S)—N-(7-(2-(3,3-difluoropyrrolidin-1-yl)-2-oxoethoxy)-5-methyl-4-oxo-2,3,4,5-tetrahydrobenzo[b][1,4]oxazepin-3-yl)-4-(3-fluorobenzyl)-1H-pyrazole-1-carboxamide] | < 10 | < 10
CN1C(=O)[C@@H](NC(=O)n2cc(Cc3cccc(F)c3)cn2)COc2ccc(OC(C)(C)C(=O)N3CCC(C)(O)CC3)cc21 [Example 42, (S)-4-(3-fluorobenzyl)-N-(7-((1-(4-hydroxy-4-methylpiperidin-1-yl)-2-methyl-1-oxopropan-2-yl)oxy)-5-methyl-4-oxo-2,3,4,5-tetrahydrobenzo[b][1,4]oxazepin-3-yl)-1H-pyrazole-1-carboxamide] | 10 to 50 | 10 to 50
CN1C(=O)[C@@H](NC(=O)n2cc(Cc3cccc(F)c3)cn2)COc2ccc(OCCC(C)(C)O)cc21 [Example 21, (S)-4-(3-fluorobenzyl)-N-(7-(3-hydroxy-3-methylbutoxy)-5-methyl-4-oxo-2,3,4,5-tetrahydrobenzo[b][1,4]oxazepin-3-yl)-1H-pyrazole-1-carboxamide] | < 10 | < 10

Source: patent publication US20240083892A1 (BISICHEM CO., LTD., priority 2021, published 2024)
